{
  "source": "patent US20100267561A1",
  "about": "“HERBICIDAL PYRIDAZINONE DERIVATIVES” (priority 2007, published 2010)",
  "assay_type_in_all_cases": "in vivo",
  "key": {"[1]": {"test_system": "cocklebur (Xanthium strumarium)", "experiment": "Test B pre-/postemergence plant response", "summary_of_the_method": "(§1)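 Seeds were sown and sprayed preemergence, while plants at 2 to 18 cm (1- to 4-leaf stage) got postemergence sprays. Compounds were formulated in a non-phytotoxic solvent mixture with surfactant. After 13 to 15 days in a greenhouse, injury was rated visually against untreated controls, 0 (no effect) to 100 (complete control).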"}, "[2]": {"test_system": "wheat (Triticum aestivum)", "experiment": "Test B pre-/postemergence plant response", "summary_of_the_method": "as §1"}, "[3]": {"test_system": "soybean (Glycine max)", "experiment": "Test B pre-/postemergence plant response", "summary_of_the_method": "as §1"}, "[4]": {"test_system": "catchweed bedstraw (Galium aparine)", "experiment": "Test B pre-/postemergence plant response", "conditions": "Preemergence", "summary_of_the_method": "as §1"}, "[5]": {"test_system": "common (oilseed) sunflower (Helianthus annuus)", "experiment": "Test B pre-/postemergence plant response", "conditions": "Preemergence", "summary_of_the_method": "as §1"}, "[6]": {"test_system": "goosegrass (Eleusine indica)", "experiment": "Test B pre-/postemergence plant response", "summary_of_the_method": "as §1"}, "[7]": {"test_system": "downy bromegrass (Bromus tectorum)", "experiment": "Test B pre-/postemergence plant response", "summary_of_the_method": "as §1"}, "[8]": {"test_system": "large crabgrass (Digitaria sanguinalis)", "experiment": "Test B pre-/postemergence plant response", "summary_of_the_method": "as §1"}, "[9]": {"test_system": "green foxtail (Setaria viridis)", "experiment": "Test B pre-/postemergence plant response", "summary_of_the_method": "as §1"}, "[10]": {"test_system": "velvetleaf (Abutilon theophrasti)", "experiment": "Test B pre-/postemergence plant response", "summary_of_the_method": "as §1"}, "[11]": {"test_system": "woolly cupgrass (Eriochloa villosa)", "experiment": "Test B pre-/postemergence plant response", "summary_of_the_method": "as §1"}, "[12]": {"test_system": "pigweed (Amaranthus retroflexus)", "experiment": "Test B pre-/postemergence plant response", "conditions": "Postemergence", "summary_of_the_method": "as §1"}, "[13]": {"test_system": "rice (Oryza sativa)", "experiment": "Test B flooded paddy test plant response", "summary_of_the_method": "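Rice, umbrella sedge, ducksalad and barnyardgrass at 2-leaf stage; pots flooded to 3 cm, compounds applied into paddy water, depth held throughout. Greenhouse 13 to 15 days, then visual rating vs untreated controls on 0–100 scale (0 no effect, 100 complete control); dash means no test result.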"}, "[14]": {"conditions": "Postemergence, 16 g ai/ha, scale 0 to 100"}, "[15]": {"conditions": "Postemergence, 31 g ai/ha, scale 0 to 100, 0 no effect, 100 complete control"}, "[16]": {"conditions": "Postemergence, 62 g ai/ha, scale 0 to 100"}, "[17]": {"conditions": "Postemergence, 125 g ai/ha, scale 0 to 100"}, "[18]": {"conditions": "Preemergence, 16 g ai/ha, scale 0 to 100 (0 no effect, 100 complete control)"}, "[19]": {"conditions": "Preemergence, 31 g ai/ha, 0 to 100 scale, 0 no effect, 100 complete control"}, "[20]": {"conditions": "Preemergence, 62 g ai/ha, scale 0 to 100"}, "[21]": {"conditions": "Preemergence, 125 g ai/ha, scale 0 to 100"}, "[22]": {"conditions": "16 g ai/ha, scale 0 to 100 (0 no effect, 100 complete control)"}, "[23]": {"conditions": "31 g ai/ha, 0 to 100 scale, 0 no effect, 100 complete control"}},
  "data": [
    {"smiles": "CCc1cc(-c2ccc(C(F)(F)F)cc2)nn1-c1c(OC(=O)OC(C)C)cnn(C)c1=O", "note": "[Compound 12]", "values": [
      {"measurement": "Plant response rating, Cocklebur", "setting": "[1]; [14]", "value": 0},
      {"measurement": "Plant response rating, Cocklebur", "setting": "[1]; [15]", "value": 0},
      {"measurement": "Plant response rating, Cocklebur", "setting": "[1]; [16]", "value": 0},
      {"measurement": "Plant response rating, Cocklebur", "setting": "[1]; [17]", "value": 0},
      {"measurement": "Plant response rating, Cocklebur", "setting": "[1]; [18]", "value": 0},
      {"measurement": "Plant response rating, Cocklebur", "setting": "[1]; [19]", "value": 0},
      {"measurement": "Plant response rating, Cocklebur", "setting": "[1]; [20]", "value": 0},
      {"measurement": "Plant response rating, Cocklebur", "setting": "[1]; [21]", "value": 0},
      {"measurement": "Plant response rating, Wheat", "setting": "[2]; [14]", "value": 90},
      {"measurement": "Plant response rating, Wheat", "setting": "[2]; [15]", "value": 95},
      {"measurement": "Plant response rating, Wheat", "setting": "[2]; [16]", "value": 95},
      {"measurement": "Plant response rating, Wheat", "setting": "[2]; [17]", "value": 100},
      {"measurement": "Plant response rating, Wheat", "setting": "[2]; [18]", "value": 20},
      {"measurement": "Plant response rating, Wheat", "setting": "[2]; [19]", "value": 90},
      {"measurement": "Plant response rating, Wheat", "setting": "[2]; [20]", "value": 95},
      {"measurement": "Plant response rating, Wheat", "setting": "[2]; [21]", "value": 95},
      {"measurement": "Plant response rating, Soybean", "setting": "[3]; [14]", "value": 0},
      {"measurement": "Plant response rating, Soybean", "setting": "[3]; [15]", "value": 0},
      {"measurement": "Plant response rating, Soybean", "setting": "[3]; [16]", "value": 0},
      {"measurement": "Plant response rating, Soybean", "setting": "[3]; [17]", "value": 0},
      {"measurement": "Plant response rating, Soybean", "setting": "[3]; [18]", "value": 0},
      {"measurement": "Plant response rating, Soybean", "setting": "[3]; [19]", "value": 0},
      {"measurement": "Plant response rating, Soybean", "setting": "[3]; [20]", "value": 0},
      {"measurement": "Plant response rating, Soybean", "setting": "[3]; [21]", "value": 0},
      {"measurement": "Plant response rating, Galium", "setting": "[4]; [22]", "value": 0},
      {"measurement": "Plant response rating, Galium", "setting": "[4]; [23]", "value": 0},
      {"measurement": "Plant response rating, Galium", "setting": "[4]; 62 g ai/ha, scale 0 to 100", "value": 0},
      {"measurement": "Plant response rating, Galium", "setting": "[4]; 125 g ai/ha, scale 0 to 100", "value": 0},
      {"measurement": "Plant response rating, Sunflower", "setting": "[5]; [22]", "value": 0},
      {"measurement": "Plant response rating, Sunflower", "setting": "[5]; [23]", "value": 0},
      {"measurement": "Plant response rating, Sunflower", "setting": "[5]; 62 g ai/ha, scale 0 to 100", "value": 0},
      {"measurement": "Plant response rating, Sunflower", "setting": "[5]; 125 g ai/ha, scale 0 to 100", "value": 0},
      {"measurement": "Plant response rating, Goosegrass", "setting": "[6]; [14]", "value": 100},
      {"measurement": "Plant response rating, Goosegrass", "setting": "[6]; [15]", "value": 100},
      {"measurement": "Plant response rating, Goosegrass", "setting": "[6]; [16]", "value": 100},
      {"measurement": "Plant response rating, Goosegrass", "setting": "[6]; [17]", "value": 100},
      {"measurement": "Plant response rating, Goosegrass", "setting": "[6]; [18]", "value": 40},
      {"measurement": "Plant response rating, Goosegrass", "setting": "[6]; [19]", "value": 98},
      {"measurement": "Plant response rating, Goosegrass", "setting": "[6]; [20]", "value": 100},
      {"measurement": "Plant response rating, Goosegrass", "setting": "[6]; [21]", "value": 100},
      {"measurement": "Plant response rating, Bromegrass, Downy", "setting": "[7]; [14]", "value": 85},
      {"measurement": "Plant response rating, Bromegrass, Downy", "setting": "[7]; [15]", "value": 85},
      {"measurement": "Plant response rating, Bromegrass, Downy", "setting": "[7]; [16]", "value": 85},
      {"measurement": "Plant response rating, Bromegrass, Downy", "setting": "[7]; [18]", "value": 0},
      {"measurement": "Plant response rating, Bromegrass, Downy", "setting": "[7]; [19]", "value": 0},
      {"measurement": "Plant response rating, Bromegrass, Downy", "setting": "[7]; [20]", "value": 70},
      {"measurement": "Plant response rating, Bromegrass, Downy", "setting": "[7]; [21]", "value": 75},
      {"measurement": "Plant response rating, Crabgrass, Large", "setting": "[8]; [14]", "value": 100},
      {"measurement": "Plant response rating, Crabgrass, Large", "setting": "[8]; [15]", "value": 100},
      {"measurement": "Plant response rating, Crabgrass, Large", "setting": "[8]; [16]", "value": 100},
      {"measurement": "Plant response rating, Crabgrass, Large", "setting": "[8]; [17]", "value": 100},
      {"measurement": "Plant response rating, Crabgrass, Large", "setting": "[8]; [18]", "value": 100},
      {"measurement": "Plant response rating, Crabgrass, Large", "setting": "[8]; [19]", "value": 100},
      {"measurement": "Plant response rating, Crabgrass, Large", "setting": "[8]; [20]", "value": 100},
      {"measurement": "Plant response rating, Crabgrass, Large", "setting": "[8]; [21]", "value": 100},
      {"measurement": "Plant response rating, Foxtail, Green", "setting": "[9]; [14]", "value": 85},
      {"measurement": "Plant response rating, Foxtail, Green", "setting": "[9]; [15]", "value": 100},
      {"measurement": "Plant response rating, Foxtail, Green", "setting": "[9]; [16]", "value": 100},
      {"measurement": "Plant response rating, Foxtail, Green", "setting": "[9]; [17]", "value": 100},
      {"measurement": "Plant response rating, Foxtail, Green", "setting": "[9]; [18]", "value": 100},
      {"measurement": "Plant response rating, Foxtail, Green", "setting": "[9]; [19]", "value": 100},
      {"measurement": "Plant response rating, Foxtail, Green", "setting": "[9]; [20]", "value": 100},
      {"measurement": "Plant response rating, Foxtail, Green", "setting": "[9]; [21]", "value": 100},
      {"measurement": "Plant response rating, Velvetleaf", "setting": "[10]; [14]", "value": 0},
      {"measurement": "Plant response rating, Velvetleaf", "setting": "[10]; [15]", "value": 0},
      {"measurement": "Plant response rating, Velvetleaf", "setting": "[10]; [16]", "value": 0},
      {"measurement": "Plant response rating, Velvetleaf", "setting": "[10]; [17]", "value": 30},
      {"measurement": "Plant response rating, Velvetleaf", "setting": "[10]; [18]", "value": 0},
      {"measurement": "Plant response rating, Velvetleaf", "setting": "[10]; [19]", "value": 0},
      {"measurement": "Plant response rating, Velvetleaf", "setting": "[10]; [20]", "value": 0},
      {"measurement": "Plant response rating, Velvetleaf", "setting": "[10]; [21]", "value": 0},
      {"measurement": "Plant response rating, Cupgrass, Woolly", "setting": "[11]; [14]", "value": 100},
      {"measurement": "Plant response rating, Cupgrass, Woolly", "setting": "[11]; [15]", "value": 100},
      {"measurement": "Plant response rating, Cupgrass, Woolly", "setting": "[11]; [16]", "value": 100},
      {"measurement": "Plant response rating, Cupgrass, Woolly", "setting": "[11]; [17]", "value": 100},
      {"measurement": "Plant response rating, Cupgrass, Woolly", "setting": "[11]; [18]", "value": 80},
      {"measurement": "Plant response rating, Cupgrass, Woolly", "setting": "[11]; [19]", "value": 85},
      {"measurement": "Plant response rating, Cupgrass, Woolly", "setting": "[11]; [20]", "value": 98},
      {"measurement": "Plant response rating, Cupgrass, Woolly", "setting": "[11]; [21]", "value": 100},
      {"measurement": "Plant response rating, Pigweed", "setting": "[12]; 16 g ai/ha, scale 0 to 100", "value": 0},
      {"measurement": "Plant response rating, Pigweed", "setting": "[12]; 31 g ai/ha, scale 0 to 100, 0 no effect, 100 complete control", "value": 0},
      {"measurement": "Plant response rating, Pigweed", "setting": "[12]; 62 g ai/ha, scale 0 to 100", "value": 5},
      {"measurement": "Plant response rating, Pigweed", "setting": "[12]; 125 g ai/ha, scale 0 to 100", "value": 50},
      {"measurement": "Plant response rating, Rice", "setting": "[13]; Flood (flooded paddy test), 62 g ai/ha, scale 0 to 100, 0 no effect, 100 complete control", "value": 20},
      {"measurement": "Plant response rating, Rice", "setting": "[13]; Flood (flooded paddy test), 125 g ai/ha, scale 0 to 100, 0 no effect, 100 complete control", "value": 70},
      {"measurement": "Plant response rating, Rice", "setting": "[13]; Flood (flooded paddy test), 250 g ai/ha, scale 0 to 100, 0 no effect, 100 complete control", "value": 80},
      {"measurement": "Plant response rating, Rice", "setting": "[13]; Flood, 31 g ai/ha, scale 0 to 100", "value": 0}
    ]}
  ]
}
